In general, EC50 refers to the concentration that produces a half-maximal response. As usually defined, the AC50 is the concentration giving half of the maximal activity seen.

In US12344610B2, “APOL1 inhibitors and methods of use” (Maze Therapeutics, Inc., priority 2022, dated 2025) one finds EC50 and AC50 data, which are given here for 21 compounds.

The subject of assay [1] is HEK293 cells overexpressing APOL1 G2. Kind of assay: APOL1 G2 HEK293 cell rescue assay (reversal of cell death caused by overexpression of APOL1). It counts as cell-based. The conditions noted are these: Homo sapiens, HEK293, HEK293 overexpressing APOL1 G2; geometric mean of at least 2 assay runs; † = single assay run. The method, boiled down:
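Each compound tested in duplicate wells on one plate per run, with values usually the geometric mean across at least two runs on different days, occasionally from one run only. Read-out: concentration giving half-maximal rescue of APOL1 G2 overexpression-induced death of HEK293 cells.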

For the next assay, the target named is T1, APOL1 G2 (Homo sapiens, UniProt O14791, DEL388-389).
T1 construct: expressed in transfected cells; host or cells: HEK293 T-REx clonal line stably expressing GCaMP6f (HEK T-REx/GCaMP6f/APOL1 G2 K6.3), doxycycline induced
T1 sequence (O14791 with tags, fused parts or gaps DEL388-389): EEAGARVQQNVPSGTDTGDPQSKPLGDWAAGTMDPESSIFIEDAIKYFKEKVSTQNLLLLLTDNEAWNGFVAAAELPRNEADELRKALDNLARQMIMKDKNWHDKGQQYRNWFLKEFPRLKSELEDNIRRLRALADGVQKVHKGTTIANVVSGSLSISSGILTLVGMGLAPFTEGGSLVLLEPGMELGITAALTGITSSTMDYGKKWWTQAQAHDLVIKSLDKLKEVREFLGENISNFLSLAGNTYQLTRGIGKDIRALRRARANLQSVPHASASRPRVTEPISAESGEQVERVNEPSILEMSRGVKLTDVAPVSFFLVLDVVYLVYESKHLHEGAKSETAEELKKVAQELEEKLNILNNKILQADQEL
Kind of assay: APOL1-mediated calcium transport (calcium influx) assay, HEK T-REx/GCaMP6f/APOL1 G2 K6.3 cells, FLIPR TETRA. It is filed as cell-based. The conditions noted are these: prevention of calcium influx; geometric mean of at least 2 assay runs; † = average of a technical replicate from a single assay run. The method, boiled down:
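A HEK293 T-REx clone stably expressing GCaMP6f had APOL1 G2 induced with doxycycline (20 ng/mL solution added) for 6 h. Cells were then washed into Ca2+-free Tyrode's buffer (pH 7.4) and preincubated with compounds (duplicate 8-point) for 10 min at room temperature. Ca2+ injection to 5 mM final produced FLIPR GCaMP fluorescence, giving AC50 for influx inhibition (geometric mean, ≥2 runs).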

On to `CC1(S(=O)(=O)c2ccc(OCCN3CCC4(CC3)C(=O)Nc3ccc(Cl)cc34)cn2)COC1` [Compound 158, 5-chloro-1′-[2-({6-[(3-methyloxetan-3-yl)sulfonyl]pyridin-3-yl}oxy)ethyl]-1,2-dihydrospiro[indole-3,4′-piperidin]-2-one], for which the EC50 in assay [1] was found to be 65.7 nM. On APOL1 G2, the concentration at half-maximal activity (AC50) was 845 nM.
In the same order, the values of `CS(=O)(=O)C1(c2ccc(OCCN3CCC4(CC3)C(=O)N(CCO)c3ccc(Cl)cc34)cc2)COC1` [Compound 160, 5-chloro-1-(2-hydroxyethyl)-1′-{2-[4-(3-methanesulfonyloxetan-3-yl)phenoxy]ethyl}-1,2-dihydrospiro[indole-3,4′-piperidin]-2-one] are 75.4 nM and 898 nM.
In the same order, the values of `Cc1cc(OCCN2CCC3(CC2)C(=O)Nc2ccc(Cl)cc23)cnc1S(C)(=O)=O` [Compound 161, 5-chloro-1′-{2-[(6-methanesulfonyl-5-methylpyridin-3-yl)oxy]ethyl}-1,2-dihydrospiro[indole-3,4′-piperidin]-2-one] are 46.4 nM and 539 nM.
In the same order, the values of `O=C1CCc2cc(OCCN3CCC4(CC3)C(=O)Nc3ccc(Cl)cc34)ccc2N1CCO` [Compound 162, 5-chloro-1′-(2-{[1-(2-hydroxyethyl)-2-oxo-1,2,3,4-tetrahydroquinolin-6-yl]oxy}ethyl)-1,2-dihydrospiro[indole-3,4′-piperidin]-2-one] are 57.1 nM and 603 nM.
With `CS(=O)(=O)c1ccc(OCCN2CCC3(CC2)C(=O)Nc2ccc(Cl)cc23)cc1OC(F)F` [Compound 163, 5-chloro-1′-{2-[3-(difluoromethoxy)-4-methanesulfonylphenoxy]ethyl}-1,2-dihydrospiro[indole-3,4′-piperidin]-2-one], the concentration giving a half-maximal response (EC50) in assay [1] was found to be 24.6 nM. On APOL1 G2, the concentration at half-maximal activity (AC50) worked out at 528 nM.
In the same order, the values of `CS(=O)(=O)c1ccc(OCCN2CCC3(CC2)C(=O)Nc2ccc(C#N)cc23)cc1OC(F)F` [Compound 164, 1′-{2-[3-(difluoromethoxy)-4-methanesulfonylphenoxy]ethyl}-2-oxo-1,2-dihydrospiro[indole-3,4′-piperidine]-5-carbonitrile] are 103 nM and 555 nM.
With `CS(=O)(=O)C1(c2ccc(OCCN3CCC4(CC3)C(=O)Nc3ccc(Cl)cc34)cc2C(F)(F)F)COC1` [Compound 165, 5-chloro-1′-{2-[4-(3-methanesulfonyloxetan-3-yl)-3-(trifluoromethyl)phenoxy]ethyl}-1,2-dihydrospiro[indole-3,4′-piperidin]-2-one], the half-maximal effective concentration (EC50) in assay [1] came to 21.2 nM. Moreover, the half-maximal activity concentration (AC50) on APOL1 G2 was determined as 558 nM.
In the same order, the values of `CS(=O)(=O)C1(c2ccc(OCCN3CCC4(CC3)C(=O)Nc3ccc(C#N)cc34)cc2C(F)(F)F)COC1` [Compound 166, 1′-{2-[4-(3-methanesulfonyloxetan-3-yl)-3-(trifluoromethyl)phenoxy]ethyl}-2-oxo-1,2-dihydrospiro[indole-3,4′-piperidine]-5-carbonitrile] are 56.1 nM and 618 nM.
In the same order, the values of `O=C1Nc2ccc(Cl)cc2C12CCN(CCOc1ccc3c(c1)CCNS3(=O)=O)CC2` [Compound 167, 6-(2-{5-chloro-2-oxo-1,2-dihydrospiro[indole-3,4′-piperidin]-1′-yl}ethoxy)-3,4-dihydro-2H-1λ^6,2-benzothiazine-1,1-dione] are 42.7 nM and 467 nM.
In the same order, the values of `N#Cc1ccc2c(c1)C1(CCN(CCOc3ccc4c(c3)CCNS4(=O)=O)CC1)C(=O)N2` [Compound 168, 1′-{2-[(1,1-dioxo-3,4-dihydro-2H-1λ^6,2-benzothiazin-6-yl)oxy]ethyl}-2-oxo-1,2-dihydrospiro[indole-3,4′-piperidine]-5-carbonitrile] are 343 nM and 1390 nM.
Regarding `CN1C(=O)Cc2cc(OCCN3CCC4(CC3)C(=O)Nc3ccc(C#N)cc34)cc(F)c21` [Compound 169, 1′-{2-[(7-fluoro-1-methyl-2-oxo-2,3-dihydro-1H-indol-5-yl)oxy]ethyl}-2-oxo-1,2-dihydrospiro[indole-3,4′-piperidine]-5-carbonitrile], the EC50 in assay [1] turned out to be 247 nM. For the same compound, the concentration at half-maximal activity (AC50) on APOL1 G2 stood at 1210 nM.
On to `CC1(Oc2ncc(OCCN3CCC4(CC3)C(=O)Nc3ccc(Cl)cc34)cn2)COC1` [Compound 172, 5-chloro-1′-[2-({2-[(3-methyloxetan-3-yl)oxy]pyrimidin-5-yl}oxy)ethyl]-1,2-dihydrospiro[indole-3,4′-piperidin]-2-one], for which, in assay [1], the half-maximal effective concentration (EC50) came to 99.1 nM. The AC50 at APOL1 G2 was 479 nM.
In the same order, the values of `CCS(=O)(=O)C1(c2ccc(OCCN3CCC4(CC3)C(=O)Nc3ccc(C#N)cc34)cc2)COC1` [Compound 174, 1′-(2-{4-[3-(ethanesulfonyl)oxetan-3-yl]phenoxy}ethyl)-2-oxo-1,2-dihydrospiro[indole-3,4′-piperidine]-5-carbonitrile] are 104 nM and 484 nM.
Consider `CS(=O)(=O)C1(c2ccc(OCCN3CCC4(CC3)C(=O)Nc3ccc(Cl)cc34)cc2)CCC1` [Compound 180, 5-chloro-1′-{2-[4-(1-methanesulfonylcyclobutyl)phenoxy]ethyl}-1,2-dihydrospiro[indole-3,4′-piperidin]-2-one], for which, in assay [1], the EC50 came out at 22.1 nM. For the same compound, at APOL1 G2, the half-maximal activity concentration (AC50) is 756 nM.
In the same order, the values of `CS(=O)(=O)C1(c2ccc(OCCN3CCC4(CC3)C(=O)Nc3ccc(C#N)cc34)cc2)CCC1` [Compound 181, 1′-{2-[4-(1-methanesulfonylcyclobutyl)phenoxy]ethyl}-2-oxo-1,2-dihydrospiro[indole-3,4′-piperidine]-5-carbonitrile] are 44.5 nM and 656 nM.
On to `CS(=O)(=O)C1(c2ccc(OCCN3CCC4(CC3)C(=O)Nc3ccc(Cl)cc34)cc2)CC2(COC2)C1` [Compound 182, 5-chloro-1′-[2-(4-{6-methanesulfonyl-2-oxaspiro[3.3]heptan-6-yl}phenoxy)ethyl]-1,2-dihydrospiro[indole-3,4′-piperidin]-2-one], for which the EC50 in assay [1] was 99.6 nM. Moreover, the concentration at half-maximal activity (AC50) on APOL1 G2 came to 574 nM.
On to `CS(=O)(=O)C1(c2ccc(OCCN3CCC4(CC3)C(=O)N(CC(F)(F)F)c3ccc(C#N)cc34)cc2)COC1` [Compound 184, 1′-{2-[4-(3-methanesulfonyloxetan-3-yl)phenoxy]ethyl}-2-oxo-1-(2,2,2-trifluoroethyl)-1,2-dihydrospiro[indole-3,4′-piperidine]-5-carbonitrile], for which the half-maximal effective concentration (EC50) in assay [1] was determined as 498 nM. Besides, the concentration at half-maximal activity (AC50) at APOL1 G2 amounted to 1280 nM.
In the same order, the values of `CS(=O)(=O)C1(c2ccc(OCCN3CCC4(CC3)C(=O)N(CC(F)(F)F)c3ccc(Cl)cc34)cc2)COC1` [Compound 185, 5-chloro-1′-{2-[4-(3-methanesulfonyloxetan-3-yl)phenoxy]ethyl}-1-(2,2,2-trifluoroethyl)-1,2-dihydrospiro[indole-3,4′-piperidin]-2-one] are 113 nM and 993 nM.
In the same order, the values of `CS(=O)(=O)C1(c2ccc(OCCN3CCC4(CC3)C(=O)Nc3ccc(Cl)cc34)cc2)CCOCC1` [Compound 188, 5-chloro-1′-{2-[4-(4-methanesulfonyloxan-4-yl)phenoxy]ethyl}-1,2-dihydrospiro[indole-3,4′-piperidin]-2-one] are 39.2 nM and 513 nM.
In the same order, the values of `CN1C(=O)C2(CCN(CCOc3cc(F)c(C4(S(C)(=O)=O)COC4)c(F)c3)CC2)c2cc(C#N)ccc21` [Compound 189, 1′-{2-[3,5-difluoro-4-(3-methanesulfonyloxetan-3-yl)phenoxy]ethyl}-1-methyl-2-oxo-1,2-dihydrospiro[indole-3,4′-piperidine]-5-carbonitrile] are 59.1 nM and 349 nM.
Take `CC(C)(c1ccc(OCCN2CCC3(CC2)C(=O)Nc2ccc(C#N)cc23)cn1)S(C)(=O)=O` [Compound 191, 1′-(2-{[6-(2-methanesulfonylpropan-2-yl)pyridin-3-yl]oxy}ethyl)-2-oxo-1,2-dihydrospiro[indole-3,4′-piperidine]-5-carbonitrile]: the concentration giving a half-maximal response (EC50) in assay [1] was 130 nM. Further, the AC50 on APOL1 G2 is 1170 nM.
